Four compounds from article PMC7949057, “The cytoprotective protein MANF promotes neuronal survival independently from its role as a GRP78 cofactor” (The Journal of Biological Chemistry, 2021) can be followed below.

Each structure is given as a SMILES string. Substitutions are numbered along the chain they refer to.

Common to all, as to format: binding
In assay [1] the target is T1, MANF (Homo sapiens, UniProt P55145).
T1 construct: mature secreted protein (about 18 kDa, signal peptide cleaved), made in CHO-derived cells (QMCF, Icosagen), no tag told; amine-labelled with RED-NHS for MST
T1 sequence (P55145 25-182): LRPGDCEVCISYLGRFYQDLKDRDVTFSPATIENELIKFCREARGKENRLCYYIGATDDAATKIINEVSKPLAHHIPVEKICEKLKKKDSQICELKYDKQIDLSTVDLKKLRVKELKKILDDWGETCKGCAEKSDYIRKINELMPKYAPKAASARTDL
Briefly: microscale thermophoresis. The text has this:
microscale thermophoresis on MANF | MANF did interact with ADP, ATP, and AMP–PNP with Kd-s of […]
In general terms: MST reads how a fluorescent partner responds to local heating, with and without ligand.

The next assay deals with T2, C-MANF (Homo sapiens, UniProt P55145).
T2 sequence (P55145 120-182 limits assumed): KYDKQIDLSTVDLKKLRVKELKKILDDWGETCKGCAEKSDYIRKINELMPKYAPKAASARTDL
Briefly: […]-HSQC NMR chemical shift perturbation. Conditions: 100 μM C-MANF, ATP:protein 0.5 to 10; 20 mM sodium phosphate pH 6.5, 50 mM NaCl; 25 °C; site at V134, K135.

Assay [2] concerns the target T3, MANF (Homo sapiens, UniProt P55145, V137G/K138A, form not given).
T3 construct: mature secreted protein (about 18 kDa, signal peptide cleaved), made in CHO-derived cells (QMCF, Icosagen), no tag told; amine-labelled with RED-NHS for MST
T3 sequence (P55145 25-182 V137G/K138A): T1 sequence (P55145 25-182) with V113G, K114A
The assay is described as follows: microscale thermophoresis. Conditions: labelled MANF 50 nM; 10 mM Na-phosphate pH 7.4, 1 mM MgCl2, 3 mM KCl, 150 mM NaCl, 0.05% Tween-20; 25 °C; 1:1 fit. The source says:
microscale thermophoresis on MANF | the mutant was able to bind ATP similarly to the wild-type MANF

The target in the next assay is T4, GRP78 (Cricetulus griseus, UniProt G3I8R9).
T4 construct: gene HSPA5; full-length recombinant, N-terminal His-tag, labelled with RED-tris-NTA for MST
Briefly: fluorescent nucleotide release (ex […] nm, em […] nm). The note with it: labelled compound; GRP78 1.25 μM, MABA-ADP 1.25 μM, chase ATP 125 μM, no MANF; 50 mM HEPES-KOH pH 7.4, 100 mM KCl, 10 mM MgCl2.

T4 sequence (G3I8R9 19-654): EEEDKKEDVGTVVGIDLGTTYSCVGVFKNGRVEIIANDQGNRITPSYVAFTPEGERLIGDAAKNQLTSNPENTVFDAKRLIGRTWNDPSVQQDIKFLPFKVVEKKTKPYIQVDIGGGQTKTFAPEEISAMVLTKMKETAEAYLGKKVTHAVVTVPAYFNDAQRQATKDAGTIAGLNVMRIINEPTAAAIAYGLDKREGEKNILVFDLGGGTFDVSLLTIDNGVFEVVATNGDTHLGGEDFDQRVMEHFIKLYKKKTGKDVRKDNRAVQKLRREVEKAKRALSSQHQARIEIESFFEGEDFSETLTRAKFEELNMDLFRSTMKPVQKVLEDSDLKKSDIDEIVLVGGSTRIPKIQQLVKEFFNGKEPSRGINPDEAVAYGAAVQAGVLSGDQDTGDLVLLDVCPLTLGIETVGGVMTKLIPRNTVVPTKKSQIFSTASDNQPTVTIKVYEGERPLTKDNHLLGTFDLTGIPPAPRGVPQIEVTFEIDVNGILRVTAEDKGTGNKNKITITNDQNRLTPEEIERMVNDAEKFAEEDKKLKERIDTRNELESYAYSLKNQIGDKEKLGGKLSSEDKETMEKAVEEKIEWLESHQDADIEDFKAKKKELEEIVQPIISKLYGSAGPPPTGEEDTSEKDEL

Take `Nc1ncnc2c1ncn2[C@@H]1O[C@H](COP(=O)(O)OP(=O)(O)O)[C@@H](O)[C@H]1O` [ADP]: the Kd at MANF [1] amounted to 880 ± 280 µM. The same measure, in the same setting: under `Nc1ncnc2c1ncn2[C@@H]1O[C@H](COP(=O)(O)OP(=O)(O)NP(=O)(O)O)[C@@H](O)[C@H]1O` [AMP–PNP] stands 560 ± 170 µM.

`Nc1ncnc2c1ncn2[C@@H]1O[C@H](COP(=O)(O)OP(=O)(O)OP(=O)(O)O)[C@@H](O)[C@H]1O` [ATP]: the “15N-HSQC NMR chemical shift perturbation” value on C-MANF is recorded as “the ATP binding site is located at the C-terminal domain of MANF”. The Kd at MANF [1] amounted to 830 ± 390 µM; at MANF [2], 339 ± 160 µM. Regarding `CNc1ccccc1C(=O)NCCCCNc1nc2c(N)ncnc2n1[C@@H]1O[C@H](COP(=O)(O)OP(=O)(O)O)[C@@H](O)[C@H]1O` [MABA–ADP], the koff result at GRP78 is recorded as “determine the mean koff rates of MABA–ADP release”.

For orientation: Kd means a measure of binding affinity in units of concentration.
